What was measured:
Assay type in all cases: in vivo
[1] = system: barnyardgrass (Echinochloa crus-galli); test: Test G Pre-Emergence Protocol; details: Echinochloa crus-galli, pre-emergence, 312 h, evaluated after 13 days
Outline: (§1)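 Test compound in 0.5% Tween 20 acetone/water (50:50) was applied at three rates (15.625, 62.5, 250 g/ha) to soil sown one day earlier. After 13 days plants were scored for injury, where 0 means unaffected and 100 means completely damaged.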

[2] = system: corn (Zea mays); test: Test G Pre-Emergence Protocol; details: Zea mays, pre-emergence, 312 h, evaluated after 13 days
Outline: as §1

[3] = system: giant foxtail (Setaria faberi); test: Test G Pre-Emergence Protocol; details: Setaria faberi, pre-emergence, 312 h, evaluated after 13 days
Outline: as §1

[4] = system: ivy-leaved morning glory (Ipomoea hederacea); test: Test G Pre-Emergence Protocol; details: Ipomoea, pre-emergence, 312 h, evaluated after 13 days
Outline: as §1

[5] = system: redroot pigweed (Amaranthus retroflexus); test: Test G Pre-Emergence Protocol; details: Amaranthus retroflexus, pre-emergence, 312 h, evaluated after 13 days
Outline: as §1

[6] = system: velvetleaf (Abutilon theophrasti); test: Test G Pre-Emergence Protocol; details: Abutilon theophrasti, pre-emergence, 312 h, evaluated after 13 days
Outline: as §1

[7] = system: barnyardgrass (Echinochloa crus-galli); test: Test G Post-Emergence Protocol; details: Echinochloa crus-galli, post-emergence, 312 h
Outline: (§2)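 Sow in soil; grow 8 d (24/16 °C, 14 h light, 65% humidity); spray 15.625/62.5/250 g/ha in acetone:water 50:50 + 0.5% Tween 20; grow on, water twice daily; score damage 0–100 at 13 d.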

[8] = system: corn (Zea mays); test: Test G Post-Emergence Protocol; details: Zea mays, post-emergence, 312 h
Outline: as §2

[9] = system: giant foxtail (Setaria faberi); test: Test G Post-Emergence Protocol; details: Setaria faberi, post-emergence, 312 h
Outline: as §2

[10] = system: ivy-leaved morning glory (Ipomoea hederacea); test: Test G Post-Emergence Protocol; details: Ipomoea, post-emergence, 312 h
Outline: as §2

[11] = system: redroot pigweed (Amaranthus retroflexus); test: Test G Post-Emergence Protocol; details: Amaranthus retroflexus, post-emergence, 312 h
Outline: as §2

[12] = system: velvetleaf (Abutilon theophrasti); test: Test G Post-Emergence Protocol; details: Abutilon theophrasti, post-emergence, 312 h
Outline: as §2

Molecule `COc1cc([C@@H]2CN(C)C(=O)[C@H]2C(=O)Nc2cccc(F)c2F)ccc1Cl` (racemic) [Compound 1474] has a pest or weed control at 15.625 g/ha ([1]; 15.625 g ai/ha, read-out: Barnyard grass damage rating (100=total damage to plant; 0=no damage to plant)) of 10%, a pest or weed control at 62.5 g/ha ([1]; 62.5 g ai/ha, 100=total damage to plant, 0=no damage to plant, read-out: plant damage rating, Barnyardgrass) of 70% and a pest or weed control at 250 g/ha ([1]; 250 g ai/ha, read-out: Barnyardgrass damage rating (100=total damage to plant; 0=no damage to plant)) of 80%. It also gave a plant injury at 15.625 g/ha ([2]; 15.625 g ai/ha, read-out: Corn damage rating (100=total damage to plant; 0=no damage to plant)) of 0%, a plant injury at 62.5 g/ha ([2]; 62.5 g ai/ha, 100=total damage to plant, 0=no damage to plant, read-out: plant damage rating, Corn) of 0% and a plant injury at 250 g/ha ([2]; 250 g ai/ha, read-out: Corn damage rating (100=total damage to plant; 0=no damage to plant)) of 40%. The pest or weed control at 15.625 g/ha ([3]; 15.625 g ai/ha, read-out: Foxtail, Giant damage rating (100=total damage to plant; 0=no damage to plant)) was 50%, the pest or weed control at 62.5 g/ha ([3]; 62.5 g ai/ha, 100=total damage to plant, 0=no damage to plant, read-out: plant damage rating, Foxtail, Giant) was 80% and the pest or weed control at 250 g/ha ([3]; 250 g ai/ha, read-out: Foxtail, Giant damage rating (100=total damage to plant; 0=no damage to plant)) was 90%. The pest or weed control at 15.625 g/ha ([4]; 15.625 g ai/ha, read-out: Morning-glory, Ivy-leaved damage rating (100=total damage to plant; 0=no damage to plant)) was 10%, the pest or weed control at 62.5 g/ha ([4]; 62.5 g ai/ha, 100=total damage to plant, 0=no damage to plant, read-out: plant damage rating, Morningglory, Ivy-leaved) was 0% and the pest or weed control at 250 g/ha ([4]; 250 g ai/ha, read-out: Morningglory, Ivy-leaved damage rating (100=total damage to plant; 0=no damage to plant)) was 10%. It also gave a pest or weed control at 15.625 g/ha ([5]; 15.625 g ai/ha, read-out: Pigweed, Redroot damage rating (100=total damage to plant; 0=no damage to plant)) of 0%, a pest or weed control at 62.5 g/ha ([5]; 62.5 g ai/ha, 100=total damage to plant, 0=no damage to plant, read-out: plant damage rating, Pigweed, Redroot) of 0% and a pest or weed control at 250 g/ha ([5]; 250 g ai/ha, read-out: Pigweed, Redroot damage rating (100=total damage to plant; 0=no damage to plant)) of 20%. The pest or weed control at 15.625 g/ha ([6]; 15.625 g ai/ha, read-out: Velvetleaf damage rating (100=total damage to plant; 0=no damage to plant)) was 0%, the pest or weed control at 62.5 g/ha ([6]; 62.5 g ai/ha, 100=total damage to plant, 0=no damage to plant, read-out: plant damage rating, Velvetleaf) was 0% and the pest or weed control at 250 g/ha ([6]; 250 g ai/ha, read-out: Velvetleaf damage rating (100=total damage to plant; 0=no damage to plant)) was 0%. The pest or weed control at 15.625 g/ha ([7]; 15.625 g ai/ha, evaluated after 13 days (100=total damage to plant; 0=no damage to plant), read-out: Barnyardgrass damage rating) was 20%, the pest or weed control at 62.5 g/ha ([7]; 62.5 g ai/ha, evaluated after 13 days, read-out: Barnyardgrass damage rating (100=total damage to plant; 0=no damage to plant)) was 50% and the pest or weed control at 250 g/ha ([7]; 250 g ai/ha, evaluated after 13 days, read-out: damage to plant, Barnyardgrass (100=total damage to plant; 0=no damage to plant)) was 60%. The plant injury at 15.625 g/ha ([8]; 15.625 g ai/ha, evaluated after 13 days (100=total damage to plant; 0=no damage to plant), read-out: Corn damage rating) was 10%, the plant injury at 62.5 g/ha ([8]; 62.5 g ai/ha, evaluated after 13 days, read-out: Corn damage rating (100=total damage to plant; 0=no damage to plant)) was 30% and the plant injury at 250 g/ha ([8]; 250 g ai/ha, evaluated after 13 days, read-out: damage to plant, Corn (100=total damage to plant; 0=no damage to plant)) was 40%. It also gave a pest or weed control at 15.625 g/ha ([9]; 15.625 g ai/ha, evaluated after 13 days (100=total damage to plant; 0=no damage to plant), read-out: Foxtail, Giant damage rating) of 60%, a pest or weed control at 62.5 g/ha ([9]; 62.5 g ai/ha, evaluated after 13 days, read-out: Foxtail, Giant damage rating (100=total damage to plant; 0=no damage to plant)) of 70% and a pest or weed control at 250 g/ha ([9]; 250 g ai/ha, evaluated after 13 days, read-out: damage to plant, Foxtail, Giant (100=total damage to plant; 0=no damage to plant)) of 70%. The pest or weed control at 15.625 g/ha ([10]; 15.625 g ai/ha, evaluated after 13 days (100=total damage to plant; 0=no damage to plant), read-out: Morningglory, Ivy-leaved damage rating) was 40%, the pest or weed control at 62.5 g/ha ([10]; 62.5 g ai/ha, evaluated after 13 days, read-out: Morningglory, Ivy-leaved damage rating (100=total damage to plant; 0=no damage to plant)) was 50% and the pest or weed control at 250 g/ha ([10]; 250 g ai/ha, evaluated after 13 days, read-out: damage to plant, Morningglory, Ivy-leaved (100=total damage to plant; 0=no damage to plant)) was 50%. It also gave a pest or weed control at 15.625 g/ha ([11]; 15.625 g ai/ha, evaluated after 13 days (100=total damage to plant; 0=no damage to plant), read-out: Pigweed, Redroot damage rating) of 30%, a pest or weed control at 62.5 g/ha ([11]; 62.5 g ai/ha, evaluated after 13 days, read-out: Pigweed, Redroot damage rating (100=total damage to plant; 0=no damage to plant)) of 0% and a pest or weed control at 250 g/ha ([11]; 250 g ai/ha, evaluated after 13 days, read-out: damage to plant, Pigweed, Redroot (100=total damage to plant; 0=no damage to plant)) of 30%. For the same molecule, the pest or weed control at 15.625 g/ha ([12]; 15.625 g ai/ha, evaluated after 13 days (100=total damage to plant; 0=no damage to plant), read-out: Velvetleaf damage rating) was 10%, the pest or weed control at 62.5 g/ha ([12]; 62.5 g ai/ha, evaluated after 13 days, read-out: Velvetleaf damage rating (100=total damage to plant; 0=no damage to plant)) was 0% and the pest or weed control at 250 g/ha ([12]; 250 g ai/ha, evaluated after 13 days, read-out: damage to plant, Velvetleaf (100=total damage to plant; 0=no damage to plant)) was 20%.

Source: patent US12077503B2, “Substituted cyclic amides and their use as herbicides” (FMC CORPORATION, priority 2015, dated 2024)
